Experiment: Pharmacokinetic parameters after oral gavage in Sprague Dawley rats
Format: in vivo, male Sprague Dawley rats
Settings: rat, 10 mg/kg
Description: The in vivo pharmacokinetic parameters of mesoporous silica (AMS-6) loaded with probucol (34.8 wt %) prepared according to the procedure as described in Example 1, were obtained after oral gavage to male Sprague Dawley rats at a dose of 10 mg/kg. Crystalline probucol (PB) was administered in comparison. […] Further, the maximum concentration of probucol after administration of silica loaded with probucol is approximately 10 times higher than when crystalline probucol is administered.

Question: With `CC(C)(Sc1cc(C(C)(C)C)c(O)c(C(C)(C)C)c1)Sc1cc(C(C)(C)C)c(O)c(C(C)(C)C)c1` [PB, Probucol] as the compound, how does the AUC(0-inf) (male, Sprague Dawley, plasma) read?
Answer: The AUC(0-inf) was 859 ng·h/mL.

Question: And the Cmax (male, Sprague Dawley, plasma)?
Answer: The Cmax was 30.9 ng/mL.

Question: What about the Tmax (male, Sprague Dawley, plasma) of the same compound?
Answer: Its Tmax is 8 h.

Question: And the half-life (male, Sprague Dawley, plasma)?
Answer: Its half-life is 19.6 h.

Question: And the AUC(0-t) (male, Sprague Dawley, plasma, read-out: AUC0-24)?
Answer: Its AUC(0-t) is 492 ng·h/mL.

Question: What about the Tlast of the same compound?
Answer: Its Tlast is 24 h.
